What was measured:
SKOV3 = test: Microculture tetrazolium assay; format: cell-based; conditions: Homo sapiens, SK-OV-3, SKOV3; read-out: IC50
T47D = test: Microculture tetrazolium assay; format: cell-based; conditions: Homo sapiens, read-out: IC50
tumor cell lines = test: NCI sulforhodamine B assay, all cell lines; conditions: Homo sapiens; for CC50 / IC100: 48 h; for CC50: read-out: Log10 LC50, Mean / MG-MID, all cell lines (converted); for IC100: read-out: Log10 TGI, Mean / MG-MID, all cell lines; for GI50: read-out: Log10 GI50, Mean / MG-MID, all cell lines (converted)
HT29 = test: Microculture tetrazolium assay; format: cell-based; conditions: Homo sapiens, HT-29, HT29; read-out: IC50
SKVLB = test: Microculture tetrazolium assay; format: cell-based; conditions: for IC50: SKVLB, read-out: IC50
SC Lung = test: NCI assay, average per cancer type; conditions: Homo sapiens; for CC50: 48 h, read-out: Average LOG10 LC50; for GI50: read-out: Average LOG10 GI50
Melanoma = test: NCI assay, average per cancer type; conditions: Homo sapiens; for CC50: 48 h, read-out: Average LOG10 LC50; for GI50: read-out: Average LOG10 GI50
Renal = test: NCI assay, average per cancer type; conditions: Homo sapiens; for CC50: 48 h, read-out: Average LOG10 LC50; for GI50: read-out: Average LOG10 GI50
Ovarian = test: NCI assay, average per cancer type; conditions: Homo sapiens; for CC50: 48 h, read-out: Average LOG10 LC50; for GI50: read-out: Average LOG10 GI50
NSC Lung = test: NCI assay, average per cancer type; conditions: Homo sapiens; for CC50: 48 h, read-out: Average LOG10 LC50; for GI50: read-out: Average LOG10 GI50
Colon = test: NCI assay, average per cancer type; conditions: Homo sapiens; for CC50: 48 h, read-out: Average LOG10 LC50; for GI50: read-out: Average LOG10 GI50
CNS = test: NCI assay, average per cancer type; conditions: Homo sapiens; for CC50: 48 h, read-out: Average LOG10 LC50; for GI50: read-out: Average LOG10 GI50
Leukemia = test: NCI assay, average per cancer type; conditions: for CC50: 48 h, read-out: Average LOG10 LC50; for GI50: read-out: Average LOG10 GI50
LOX = test: Microculture tetrazolium assay; format: cell-based; conditions: read-out: IC50
solid tumors = test: NCI assay, mean potency in solid tumors; conditions: Homo sapiens; for CC50: 48 h, read-out: Average LOG10 LC50, Mean Potency in solid tumors; for GI50: read-out: Average LOG10 GI50, Mean Potency in solid tumors

| SMILES | IC50 (SKOV3) | IC50 (T47D) | CC50 (tumor cell lines) | IC100 (tumor cell lines) | GI50 (tumor cell lines) | IC50 (HT29) | IC50 (SKVLB) | CC50 (SC Lung) | GI50 (SC Lung) | CC50 (Melanoma) | GI50 (Melanoma) | CC50 (Renal) | GI50 (Renal) | CC50 (Ovarian) | GI50 (Ovarian) | CC50 (NSC Lung) | GI50 (NSC Lung) | CC50 (Colon) | GI50 (Colon) | CC50 (CNS) | also measured |
| --- | --- | --- | --- | --- | --- | --- | --- | --- | --- | --- | --- | --- | --- | --- | --- | --- | --- | --- | --- | --- | --- |
| COC(=O)[C@@H]1CC2=C(C(=O)c3cc4ccccc4cc3C2=O)[C@@H](O[C@H]2C[C@H](NC(=O)C(F)(F)F)[C@H](O)[C@H](C)O2)O1 [BCH-671] | 4.69 µM | 2.86 µM | 29.5 µM | 7.76 µM | 2.88 µM | 4.23 µM | 6.19 µM | 55 µM | 2.51 µM | 21.4 µM | 2.09 µM | 23.4 µM | 2.82 µM | 33.9 µM | 3.63 µM | 30.2 µM | 4.57 µM | 15.8 µM | 1.91 µM | 42.7 µM | VLB/OV3 (SKVLB; IC50 ratio SKVLB/SKOV3): 1.32; GI50 (CNS): 4.27 µM; CC50 (Leukemia): > 100 µM; GI50 (Leukemia): 1.82 µM; IC50 (LOX): 2.61 µM; CC50 (solid tumors): 29.5 µM; GI50 (solid tumors): 2.95 µM |
| CC(=O)C1Cc2c(O)c3c(c(O)c2CO1)C(=O)c1ccccc1C3=O (centres unmarked) [BCH-688, Methyl-(5,12-dihydroxy-6,11-dioxo-3,4,6,11-tetrahydroanthraceno-[2,3-c]pyran-3-yl)ketone] | 100 µM | 100 µM | 100 µM | 97.7 µM | 75.9 µM | 100 µM | 100 µM | > 100 µM | > 100 µM | > 100 µM | > 100 µM | > 100 µM | > 100 µM | > 100 µM | 75.9 µM | > 100 µM | > 100 µM | > 100 µM | > 100 µM | > 100 µM | GI50 (CNS): 53.7 µM; CC50 (Leukemia): > 100 µM; GI50 (Leukemia): 36.3 µM; IC50 (LOX): 100 µM; CC50 (solid tumors): > 100 µM; GI50 (solid tumors): 52.5 µM |

From patent US5593970A, “Heterocyclic anthracycline analogs” (priority 1994, dated 1997)
